Half-life data for 89 compounds are collected here from PubChem BioAssay AID1508591.

What is called half-life is how long it takes for the measured level to halve.

For the series the following is noted: rat; liver microsomes; pH 7.4; 15.0 min; 1.0 µM. (Microsomes from liver hold many membrane-bound enzymes, among them those of drug oxidation.)
As to `COc1ccc(S(=O)(=O)N2CCOCC2)cc1NC(=O)c1cccc(-n2cccc2)c1`, the half-life stood at 3.37 min.
In turn, `CC[C@H]1CN2CCc3cc(OC)c(OC)cc3[C@@H]2C[C@@H]1C[C@H]1NCCc2cc(OC)c(OC)cc21` had a half-life greater than 30 min.
`Cc1ccc(/C=C/c2nc3ccccc3n2S(=O)(=O)c2ccc(Br)cc2)cc1` gave a half-life of 28.6 min.
With `COc1ccc2[nH]cc(CCNC(=O)c3cnn(-c4ccc(C)cc4)c3C3CCN(C(=O)OC(C)(C)C)CC3)c2c1`, the half-life was found to be 1.65 min.
`O=c1[nH]c(C2CCCN(CC3CCCCC3)C2)nn1-c1ccc(Cl)cc1` (centres undefined) gave a half-life greater than 30 min.
As for `O=C(Nc1ccccc1)C1CC(=O)N(c2n[nH]c3cc(Br)ccc23)C1` (centres undefined), the half-life is greater than 30 min.
As to `O=S(=O)(Nc1ccc(S(=O)(=O)Nc2nccs2)cc1)c1ccc2ccccc2c1`, the half-life is greater than 30 min.
As to `CC(C)c1ccc(CC(=O)N2CCCc3ncc(C(=O)Nc4cccnc4)cc32)cc1`, the half-life came to 5.67 min.
Regarding `Cc1ccc(S(=O)(=O)Nc2cncc(C(=O)Nc3nc(-c4ccccc4)cs3)c2)cc1`, the half-life is 19 min.
As for `Cc1ccc(S(=O)(=O)Nc2ccccc2C(=O)Nc2cccc(-c3ccccc3)c2)cc1`, the half-life is 3.5 min.
As to `O=C(C=Cc1cccnc1)NCCCCC1CCN(C(=O)c2ccccc2)CC1`, the half-life amounted to 12.2 min.
As for `Cc1ccc(-n2nc3c(=O)n(CCCC(=O)NC(C)c4ccccc4)nc(C)c3c2C)cc1` (centres undefined), the figure is 2.27 min; as for `O=C(Cc1ccc(Cl)c(Cl)c1)Nc1ccc(S(=O)(=O)Nc2nncs2)cc1`, greater than 30 min.
The same measure for `COc1ccc(-c2csc(NC(=O)c3ccncc3NS(=O)(=O)c3ccc(C)cc3)n2)cc1`: 4.7 min.
`Nc1ccccc1OCCn1c(CCNC(=O)C2CCCCC2)nc2ccccc21` had a half-life of 2.13 min.
In the case of `O=C(O)c1ccc(Nc2nc(-c3cc4ccccc4oc3=O)cs2)cc1O`, the half-life is greater than 30 min.
The same measure for `Cc1sc(NC(=O)Cc2ccc3c(c2)OCO3)nc1-c1ccc2c(c1)CCN2C(=O)c1ccccc1C(F)(F)F`: greater than 30 min; for `Fc1ccc(Nc2nc(C3=CCNCC3)nc3ccccc23)cc1F`: 6.1 min; for `COCCNC(=O)c1ccc(-c2ccc(N3CCCCC3)nc2)cc1`: 3.26 min.
For the compound `Cc1ccc(NC(=O)c2cc(S(=O)(=O)NCCC3=CCCCC3)ccc2F)cc1F`, the half-life was found to be 2.07 min.
`Nc1ccccc1CNc1ccc(S(=O)(=O)Nc2nccs2)cc1`: the half-life was greater than 30 min.
As for `NC(=O)C1CCN(c2nc(-c3ccc([N+](=O)[O-])cc3)cs2)CC1`, the figure is 5.53 min; as for `Cc1cnc(-c2ccccc2C(C)C)nc1NCC1CCN(C2COC2)CC1`, 7.7 min; as for `O=C1/C(=C\c2ccccc2)C[C@@]2(O)C3Cc4ccc(O)c5c4[C@@]2(CCN3CC2CC2)[C@H]1O5`, 3.37 min.
For `Clc1ccc(-c2noc3ncnc(N4CCCCC4)c23)cc1`, the half-life came out at 5.8 min.
`COc1cc2c(c(OC)c1OC)-c1ccc(OC)c(=O)cc1[C@@H](NC(C)=O)CC2` returned a half-life greater than 30 min.
Consider `O=C(Nc1nc2cc(C(F)(F)F)ccc2s1)c1ccc(-c2cccc([N+](=O)[O-])c2)o1`, for which the half-life was greater than 30 min.
The compound `O=C(N/N=C/c1ccc(O)c(O)c1)c1cc2ccccc2cc1O` came in with a half-life of 15.1 min.
Compound `CC1=C(C(=O)Nc2nnc(-c3ccccc3)s2)C(c2[nH]ncc2Cl)N=C(Nc2nc3ccccc3o2)N1` (centres undefined) yielded a half-life of 11 min. This half-life and that of the compound before are within 1.5-fold of each other.
Consider `CC(=O)c1c(C)c(C(=O)Nc2cccc([S+](=O)([O-])N3CCCCCC3)c2)n(C)c1C`, for which the half-life was determined as 1.4 min.
`Oc1ccc(CN2CC(CNc3ccccc3)C3(C2)CN(c2ccccc2)C3)cc1` (centres undefined) came in with a half-life of 3.01 min.
As to `COC(=O)Nc1nc2ccc(Sc3ccccc3)cc2[nH]1`, the half-life amounted to 18.4 min.
Compound `CC(C)(O)CNc1nc(Nc2ccnc(C(F)(F)F)c2)nc(-c2cccc(C(F)(F)F)n2)n1` had a half-life greater than 30 min.
Compound `O=C(NCc1cccnc1)c1nc(-c2ccc(Cl)nc2)c2cnccn12` registered a half-life of 26.6 min.
As to `CCc1ccc(NC(=O)CSC2=Nc3ccccc3C3=NC(CC(=O)NCc4ccc5c(c4)OCO5)C(=O)N23)cc1` (centres undefined), the half-life turned out to be 2.86 min.
In the case of `COc1cc2nc(N3CCCC3)nc(NCCCCCN3CCCC3)c2cc1OC`, the half-life was greater than 30 min.
As for `c1cnc(N2CCN(Cc3c[nH]c4ccccc34)CC2)nc1`, the half-life amounted to 1.6 min.
Take `Nc1ccc(S(=O)(=O)Nc2cnccc2C(=O)Nc2nc(-c3ccccc3)cs2)cc1`: the half-life turned out to be 25 min.
As for `O=C(Nc1ncc(Cc2ccc(C(F)(F)F)cc2)s1)c1ccc(-c2cccnc2)o1`, the half-life is greater than 30 min.
`O=c1cc(-c2ccc(O)c(O)c2)oc2cc(O)cc(O)c12`: the half-life is greater than 30 min.
As to `COc1cccc(CNc2ccc(S(=O)(=O)Nc3cccnc3)cc2)c1O`, the half-life turned out to be 15 min.
For `Cc1cc2ccccc2n1CC(=O)NC1CCCCC1`, the half-life was determined as 2.8 min.
As for `CC1=C(C(=O)Nc2ccccc2)C(c2ccccc2Cl)N=C(Nc2nc3ccccc3o2)N1` (centres undefined), the figure is 24 min; as for `O=C(Nc1ccc2oc(-c3cccnc3)nc2c1)c1ccc(-c2cccc(Cl)c2)o1`, greater than 30 min.
`CC(C)(N)C(=O)N[C@H](COCc1ccccc1)C(=O)N1CCC2(CC1)CN(S(C)(=O)=O)c1ccccc12` displayed a half-life of 4.99 min.
As for `O=C(c1ccccc1)N1CCN(c2nc(-c3ccc(Br)cc3)cs2)CC1`, the half-life was greater than 30 min.
`Fc1cc(Nc2nc(-c3ccncc3)nc3ccccc23)ccc1N1CCCCC1` gave a half-life of 5.9 min.
The compound `Cc1cnccc1-c1nc(Nc2ccc(F)c(F)c2)c2ccccc2n1` registered a half-life of 10 min.
The same measure for `Cc1cccc(-c2cc(NC(=O)c3ccccc3C)n(-c3ccccc3)n2)c1`: 3.18 min.
The same measure for `O=C(NCCc1cnc[nH]1)c1ccc(-c2ncc3cnc(-c4cccc(F)c4)cn23)cc1`: greater than 30 min; for `CC(=O)Nc1ccc(CN2CCc3nc(C(C)C)nc(-c4ccc(Cl)cc4)c3CC2)cc1`: 4.1 min; for `O=C1Nc2ccccc2/C1=C\c1cc(F)c(O)c(F)c1`: 23 min.
The compound `CC(=O)c1c(C)[nH]c(C(=O)Nc2cccc(S(=O)(=O)Nc3ccc(Br)c(F)c3)c2)c1C` displayed a half-life of 17 min. This half-life and that of the compound before are within 1.5-fold of each other.
For the compound `O=C(O)CCNc1cc(N2CCc3ccccc3CC2)nc(-c2ccccn2)n1`, the half-life was greater than 30 min.
The compound `O=C(Nc1nc(-c2ccccc2)cs1)c1ccccc1-n1cnnn1` came in with a half-life greater than 30 min.
Compound `Cn1cc(Br)c(C2N=C(Nc3nc4ccccc4o3)NC3=C2C(=O)CCC3)n1` (centres undefined) displayed a half-life of 8.5 min.
As for `COc1ccccc1OCCNCC(O)COc1cccc2[nH]c3ccccc3c12` (centres undefined), the half-life stood at 1.52 min.
`COc1ccnc(NC(=S)N2CCN(c3cc(C(F)(F)F)cc(C(F)(F)F)c3)CC2)c1`: the half-life was greater than 30 min.
Regarding `CCOc1ccc(CCNC(=O)c2cc3ccccc3n2Cc2ccc(Cl)c(F)c2)cc1OCC`, the half-life came to 1.7 min.
In turn, `O=C(Nc1nc(-c2ccccc2)cs1)c1ccncc1NS(=O)(=O)c1ccccc1F` displayed a half-life of 7 min. Against the preceding compound, the half-life is about 4.1-fold higher.
In turn, `CC(C)N(CCC(=O)c1ccc2ccccc2c1)Cc1ccccc1` came in with a half-life of 1.65 min.
`COc1c(Cl)cc2c([nH]c3cnccc32)c1NC(=O)c1cccnc1C`: the half-life is greater than 30 min.
As to `COc1ccc(NC(=O)c2c(C)cccc2C)cc1[S+](=O)([O-])N1CCCCCC1`, the half-life came to 1.8 min.
As for `Cc1ccnc(NC(=S)N2CCN(c3cc(C(F)(F)F)cc(C(F)(F)F)c3)CC2)c1`, the figure is greater than 30 min; as for `Fc1ccc(Nc2nc(Nc3ccncc3)nc3ccccc23)cc1F`, greater than 30 min; as for `O=c1cc(-c2ccccc2)oc2cc(O)cc(O)c12`, 1.92 min.
Consider `CCc1ccc(NC(=O)c2[nH]c(C)c(C(C)=O)c2C)cc1S(=O)(=O)Nc1cccc(C#N)c1`, for which the half-life came to 6.1 min.
The same measure for `Cc1ccc(-c2cc(C(=O)Nc3ccc(C#N)cc3)c3ccccc3n2)cc1C`: greater than 30 min; for `COc1cc(CNCCO)cc(Cl)c1OCc1ccc(Cl)cc1Cl`: 25.5 min.
`CCN(CC)S(=O)(=O)c1ccc(N2CCOCC2)c(NC(=O)c2[nH]c(C)c(C(C)=O)c2C)c1` yielded a half-life of 5.49 min.
With `COc1ccc(C2=Nn3c(nnc3-c3ccncc3)SC2)cc1`, the half-life amounted to 1.9 min.
The same measure for `Oc1ccccc1NCC(O)Cn1ccc2ccccc21` (centres undefined): 2.37 min; for `CC[C@@H](C)Nc1cc(C(=O)NC2CC3CCC(C2)N3c2ccc(C(=O)C3CC3)cn2)c(C)cc1C(N)=O` (some centres undefined): 23.4 min.
For `Cc1ccc(S(=O)(=O)Nc2cc(C(=O)Nc3nc(-c4ccccc4)cs3)ccc2Cl)cc1`, the half-life amounted to 15 min.
In turn, `CC(=O)c1c(C)c(C(=O)Nc2cccc([S+](=O)([O-])N(C)C)c2)n(C)c1C` had a half-life of 15 min.
As to `O=C(NCc1ccco1)c1nc2nc(-c3cccs3)cc(C(F)(F)F)n2n1`, the half-life was greater than 30 min.
`CS(=O)(=O)c1ccc(-c2csc(N3CCC(C(N)=O)CC3)n2)cc1` displayed a half-life greater than 30 min.
For `O=C(Nc1ncc(Cc2ccc(C(F)(F)F)cc2)s1)c1ccc(-c2ccc([N+](=O)[O-])cc2)o1`, the half-life is greater than 30 min.
Take `CCOc1cc(CNc2ccc(O)cc2)ccc1OCc1ccc(Cl)cc1`: the half-life came out at 3.84 min.
`COc1ccccc1-c1[nH]nc2ncc(-c3ccc(C)cc3)nc12` registered a half-life of 3 min.
On to `COc1ccc(CN2CCc3c(c(=O)n4ncc(C(=O)N5CCN(c6ccccc6OC)CC5)c4n3C)C2)cc1`, for which the half-life amounted to 1.97 min.
`O=C(Nc1ncc(Cc2ccc(C(F)(F)F)cc2)s1)c1cccc(-c2ccccc2)c1` showed a half-life greater than 30 min.
Compound `CCN(CC)S(=O)(=O)c1ccc(N2CCCC2)c(NS(=O)(=O)c2ccc(C)cc2)c1` registered a half-life of 1.17 min.
Compound `CN1CCN(CCCN2c3ccccc3Sc3ccc(S(=O)(=O)N(C)C)cc32)CC1` gave a half-life of 1.95 min.
As for `Nc1cc2nc3ccccc3oc-2cc1=O`, the half-life was found to be 8.63 min. This half-life is about 4.4-fold higher than that of the compound before.
In turn, `COc1cccc(CNc2ccc(S(=O)(=O)Nc3ccccc3)cc2)c1O` had a half-life of 6.7 min. This half-life and that of the compound before are within 1.5-fold of each other.
The compound `O=C(Cc1ccc(Cl)c(Cl)c1)Nc1ccc(S(=O)(=O)Nc2cncnc2)cc1` had a half-life greater than 30 min.
Regarding `OCc1ccc(-c2ccc(-c3ccc(CO)s3)o2)s1`, the half-life is 6.18 min.
As for `CN(c1ncccc1CNc1nc(Nc2ccc3c(c2)CC(=O)N3)ncc1C(F)(F)F)S(C)(=O)=O`, the half-life was greater than 30 min.
